The test system of the assay is BDNF mRNA. The experiment in a line: BDNF mRNA expression in mouse hippocampus. As to conditions: 3 and 10 mg/kg, p.o. The class given is in vivo. The method, then:
Male ICR mice at 7 weeks old were treated with orally administered vehicle or TAK-653. For the repeated dose study, TAK-653 (0.3 mg/kg, p.o.) or vehicle was administered for 14 days. AMPA at designated doses was intravenously (i.v.) administered 1 h after oral administration. Three hours after i.v. administration of AMPA, right hippocampi were isolated from the mice by euthanasia and acutely frozen on dry ice. Total RNA from mouse hippocampus was extracted with RNeasy 96 kit (Qiagen, Hilden, Germany). Reverse transcription of total RNA was performed using the High-capacity cDNA Archive kit (Life Technologies, Carlsbad, CA). Real-time quantitative PCR was carried out using an ABI PRISM 7900HT sequence detection system (Life Technologies) using PCR reagents (Nippon Gene Co. Limited, Toyama, Japan). Primers used for BDNF analyses were as follows: BDNF forward primer, 5’-[…]-3’; BDNF reverse primer, 5’-[…]-3’; BDNF TaqMan probe, 5’-FAM- […]-TAMRA-3’. Primers used for Gadd45b analyses were as follows: Gadd45b forward primer, 5’-[…]-3’; Gadd45b reverse primer, 5’-GCGCCAGCCTCTGCAT-3’; Gadd45b TaqMan probe, 5’'-FAM-[…]-MGB-3’. […] Concentrations of GAPDH mRNA were used for internal controls and relative BDNF or Gadd45b mRNA/GAPDH mRNA levels were calculated.

The values below come from publication PMC8282797, “Strictly regulated agonist-dependent activation of AMPA-R is the key characteristic of TAK-653 for robust synaptic responses and cognitive improvement” (Scientific Reports, 2021).

For `CC1=CN2CCS(=O)(=O)N=C2C(c2ccc(OC3CCCCC3)cc2)=N1` [TAK-653, 9-[4-(Cyclohexyloxy)phenyl]-7-methyl-3,4-dihydropyrazino[2,1-c][1,2,4]thiadiazine 2,2-dioxide], the “BDNF mRNA levels in hippocampus” value was “significantly increased” (AMPA (3.5 mg/kg, i.v.)-treated mice) and “did not increase” (compound alone).
